Series [1] in a line: Stability test of crystalline forms (high temperature, high humidity, irradiation; HPLC purity and crystal form). The class given is physicochemical. The method, then: Test samples were put into an open and proper clean container, and left to stand at 60° C. for 10 days. Samples were collected on day 5 and day 10;
Test samples were put into a closed humid container, and left to stand at 92.5%±5% RH/25° C. for 10 days. Samples were collected on day 5 and day 10;
Test samples were put into a lighting box or other suitable lighting devices (open) with fluorescent lamps at 4500 1×±500 1× for 10 days. Samples were collected on day 5 and day 10.
In the three conditions, the purity of the product and the contents of related substances were detected after the test samples were placed in the experimental conditions. • Instrument: Thermo U3000 high-performance liquid chromatography; • Detector: thermo VWD-3100 UV absorption detector/DAD-3000 diode array detector; • Chromatographic column: XSelect CSH C18 (4.6×150 mm, 3.5 μm); • Injection volume: 10 μL; detection wavelength: 280 nm; flow rate: 1.0 mL/min; column temperature: 30° C.; • Mobile phase: phase A: 0.1% of aqueous formic acid solution, phase B: acetonitrile, gradient elution; • Preparation of sample solution: An appropriate amount of the product was precisely, and dissolved in methanol. The solution was quantitatively diluted to obtain a solution containing about 0.5 mg per 1 mL as a test solution.

The nature of series [2]: Hygroscopicity test (Chinese Pharmacopoeia General Chapter 9103). Type of series: physicochemical. Conditions: 25° C.±1° C., relative humidity 80%±2%, 24 h. An excerpt:
For the method and conditions of the hygroscopicity test, please refer to the “Guidelines for the Hygroscopicity Test of Drugs” (General Chapter 9103, Chinese Pharmacopoeia, Volume IV, 2015 Edition). Hygroscopicity refers to the capability or degree of a substance for absorbing water in certain temperature and humidity conditions. The test samples were solid drug substances meeting the specifications, and the test results may be used as a reference for selection of suitable drug packaging and storage conditions. • (1) A dried glass weighing bottle with a plug (outer diameter: 50 mm; height: 15 mm) was taken and placed in a suitable thermostatic dryer (with saturated ammonium chloride or ammonium sulfate solution placed in the lower part) at 25° C.±1° C. or an artificial climate box (with a set temperature at 25° C.±1° C. and relative humidity at 80%±2%) on the day before the test, and the weight (m1) was precisely measured. • (2) An appropriate amount of test sample was taken and spread in the above weighing bottle, with the thickness of the test sample being about 1 mm in general, and the weight (m2) was precisely measured. • (3) The weighing bottle was opened and placed in the above conditions at constant temperature and humidity for 24 h together with the cap. • (4) The weighing bottle was capped, and the weight (m3) was precisely measured.

[3] abbreviates: High humidity 92.5 ± 5% RH/25° C., Day 0.
[4] abbreviates: High humidity 92.5 ± 5% RH/25° C., Day 5.
Setting [5] is: High humidity 92.5 ± 5% RH/25° C., Day 10.
Where [6] appears, read: High temperature 60° C., open container, Day 0.
The mark [7] stands for this setting: High temperature 60° C., open container, Day 5.
[8] abbreviates: High temperature 60° C., open container, Day 10.
Where [9] appears, read: Irradiation 4500 ± 500 lx, Day 0.
The mark [10] stands for this setting: Irradiation 4500 ± 500 lx, Day 5.
The mark [11] stands for this setting: Irradiation 4500 ± 500 lx, Day 10.

In the case of `CC1(C)CCC(CN2CCN(c3ccc(C(=O)NS(=O)(=O)c4ccc(NC[C@H]5COCCO5)c([N+](=O)[O-])c4)c(Oc4cnc5[nH]ccc5c4)c3)CC2)=C(c2ccc(C(F)(F)F)cc2Cl)C1` [Amorphous form], the Crystalline form entry in series [1] (setting [3]) is given as “Amorphous”; in series [1] (setting [4]), “Amorphous”; in series [1] (setting [5]), “Amorphous”; in series [1] (High temperature 60° C., Day 0), “Amorphous”; in series [1] (High temperature 60° C., Day 5), “Amorphous”; in series [1] (High temperature 60° C., Day 10), “Amorphous”. The Crystalline form result in series [1] (setting [9]), in series [1] (setting [10]) and in series [1] (setting [11]) was “Amorphous” each time. In addition, the Purity in series [1] (setting [3]) was found to be 97.91%; in series [1] (setting [4]), 97.85%; in series [1] (setting [5]), 97.89%; in series [1] (setting [6]), 97.91%; in series [1] (setting [7]), 97.51%; in series [1] (setting [8]), 97.33%. Moreover, the Purity in series [1] (setting [9]) was 97.91%; in series [1] (setting [10]) it was 95.96%; in series [1] (setting [11]), 93.83%.

`CC1(C)CCC(CN2CCN(c3ccc(C(=O)NS(=O)(=O)c4ccc(NC[C@H]5COCCO5)c([N+](=O)[O-])c4)c(Oc4cnc5[nH]ccc5c4)c3)CC2)=C(c2ccc(C(F)(F)F)cc2Cl)C1` [Crystalline form A]: the Purity in series [1] (setting [3]) was determined as 97.92%; in series [1] (setting [4]), 97.84%; in series [1] (setting [5]), 97.91%; in series [1] (setting [6]), 97.92%; in series [1] (setting [7]), 97.41%; in series [1] (setting [8]) it was 97.17%. Besides, the Purity was determined as 97.92% in series [1] (setting [9]), 97.07% in series [1] (setting [10]) and 96.62% in series [1] (setting [11]). This molecule yielded a Hygroscopic weight gain in series [2] of 1.38 wt %.

For `CC1(C)CCC(CN2CCN(c3ccc(C(=O)NS(=O)(=O)c4ccc(NC[C@H]5COCCO5)c([N+](=O)[O-])c4)c(Oc4cnc5[nH]ccc5c4)c3)CC2)=C(c2ccc(C(F)(F)F)cc2Cl)C1` [Crystalline form B], the Purity in series [1] (setting [3]) is reported as 98.44%; in series [1] (setting [4]) it was 98.45%; in series [1] (setting [5]) it was 98.36%; in series [1] (setting [6]) it was 98.44%; in series [1] (setting [7]) it was 98.34%; in series [1] (setting [8]), 98.22%. Also, the Purity in series [1] (setting [9]) was determined as 98.44%; in series [1] (setting [10]), 98.22%; in series [1] (setting [11]) it was 97.68%. Also, the Hygroscopic weight gain in series [2] was found to be 0.30 wt %.

As for `CC1(C)CCC(CN2CCN(c3ccc(C(=O)NS(=O)(=O)c4ccc(NC[C@H]5COCCO5)c([N+](=O)[O-])c4)c(Oc4cnc5[nH]ccc5c4)c3)CC2)=C(c2ccc(C(F)(F)F)cc2Cl)C1` [Crystalline form C], the Purity in series [1] (setting [3]) stood at 98.56%; in series [1] (setting [4]) it was 98.70%; in series [1] (setting [5]), 98.64%; in series [1] (setting [6]) it was 98.56%; in series [1] (setting [7]), 98.25%; in series [1] (setting [8]), 97.31%. Besides, the Purity is 98.56% in series [1] (setting [9]), 98.45% in series [1] (setting [10]) and 98.15% in series [1] (setting [11]). The Hygroscopic weight gain in series [2] was found to be 0.11 wt %.

`CC1(C)CCC(CN2CCN(c3ccc(C(=O)NS(=O)(=O)c4ccc(NC[C@H]5COCCO5)c([N+](=O)[O-])c4)c(Oc4cnc5[nH]ccc5c4)c3)CC2)=C(c2ccc(C(F)(F)F)cc2Cl)C1` [Crystalline form D]: in series [2], the Hygroscopic weight gain is reported as 0.75 wt %.

`CC1(C)CCC(CN2CCN(c3ccc(C(=O)NS(=O)(=O)c4ccc(NC[C@H]5COCCO5)c([N+](=O)[O-])c4)c(Oc4cnc5[nH]ccc5c4)c3)CC2)=C(c2ccc(C(F)(F)F)cc2Cl)C1` [Crystalline form E]: the Purity in series [1] (setting [3]) amounted to 98.02%; in series [1] (setting [5]) it was 97.89%; in series [1] (setting [6]), 98.02%; in series [1] (setting [8]), 97.88%; in series [1] (setting [9]), 98.02%; in series [1] (setting [11]), 97.71%. For the same molecule, the Hygroscopic weight gain in series [2] was 0.11 wt %.

Molecule `CC1(C)CCC(CN2CCN(c3ccc(C(=O)NS(=O)(=O)c4ccc(NC[C@H]5COCCO5)c([N+](=O)[O-])c4)c(Oc4cnc5[nH]ccc5c4)c3)CC2)=C(c2ccc(C(F)(F)F)cc2Cl)C1` [Crystalline form F] gave a Hygroscopic weight gain in series [2] of 0.76 wt %.

On to `CC1(C)CCC(CN2CCN(c3ccc(C(=O)NS(=O)(=O)c4ccc(NC[C@H]5COCCO5)c([N+](=O)[O-])c4)c(Oc4cnc5[nH]ccc5c4)c3)CC2)=C(c2ccc(C(F)(F)F)cc2Cl)C1` [Crystalline form H], for which the Hygroscopic weight gain in series [2] is recorded as 0.25 wt %.

(Values after patent publication US12545674B2, “Crystal of trifluoromethyl/chloro disubstituted sulfonamide selective BCL-2 inhibitor” (priority 2020, dated 2026).)
